Results from patent publication US8609699B2, “Oxotetrahydrofuran-2-yl-benzimidazole derivative” (MSD K.K., priority 2008, dated 2013).
pEC50: −log10 of the molar value.

Assays:
[1] = target: T1, recombinant human liver GK (Homo sapiens, UniProt P35557); assay: Glucokinase-activating effect (Thio-NADH, G6PDH-coupled assay); assay type: biochemical; conditions: final glucose 2.5 mM, 30° C; for Emax(%): OD level of DMSO control = 100%
T1 construct: made in house; host or cells: E. coli
T1 sequence (P35557 1-466 isoform P35557-2): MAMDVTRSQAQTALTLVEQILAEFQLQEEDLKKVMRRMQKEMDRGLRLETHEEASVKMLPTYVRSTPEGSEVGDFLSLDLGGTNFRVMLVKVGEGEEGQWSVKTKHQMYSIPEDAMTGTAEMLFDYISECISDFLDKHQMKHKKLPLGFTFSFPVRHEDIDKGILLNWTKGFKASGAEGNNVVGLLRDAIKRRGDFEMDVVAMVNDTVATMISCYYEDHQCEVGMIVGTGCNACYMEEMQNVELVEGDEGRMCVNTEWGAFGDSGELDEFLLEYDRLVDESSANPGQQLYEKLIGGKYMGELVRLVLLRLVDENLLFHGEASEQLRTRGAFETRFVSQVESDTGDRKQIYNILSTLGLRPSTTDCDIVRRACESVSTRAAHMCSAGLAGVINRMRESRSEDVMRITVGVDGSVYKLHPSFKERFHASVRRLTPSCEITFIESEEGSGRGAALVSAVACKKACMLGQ
Excerpt: The excellent glucokinase-activating effect of the compounds of formula (I) may be determined by a method described in literature (for example, Diabetes, Vol. 45, pp. 1671-1677, 1996), or in accordance with it.
The glucokinase activity may be determined not by directly measuring glucose-6-phosphate but by measuring the level of Thio-NADH, which is produced when a reporter enzyme, glucose-6-phosphate dehydrogenase produces phosphogluconolactone from glucose-6-phosphate, and based on the level, the degree of glucokinase activation by the compound tested may be determined.
In this assay, used was a recombinant human liver GK, which was expressed by E. coli as a FLAG fusion protein therein and was purified by ANTIFLAG M2 AFFINITY GEL (Sigma).
Using a flat-bottomed 96-well plate, the assay was carried out at 30° C. 69 μl of an assay buffer (25 mM Hepes Buffer/pH=7.2, 2 mM MgCl2, 1 mM ATP, 0.5 mM TNAD, 1 mM dithiothreitol) was put into the plate, and 1 μl of a DMSO solution of the compound or DMSO alone as a control was added thereto. Next, 20 μl of an enzyme mixture (FLAG-GK, 20 U/ml G6PDH) cooled in ice was added to it, and 10 μl of a substrate, 25 mM glucose was added to it, and the reaction was initiated (final glucose concentration=2.5 mM).
After the start of the reaction, the increase in the absorbance at 405 nm was measured for 12 minutes at intervals of 30 seconds, and the increase for the first 5 minutes was used for assessing the compound tested. FLAG-GK was added so that the absorbance increase after 5 minutes in the presence of 1% DMSO could be from 0.04 to 0.06.
The OD level of the DMSO control was set as 100%; and the OD level of the test compound at different concentrations was determined. From the OD level at each concentration, Emax (%) and EC50 (μM) were computed and used as the index of the GK-activating potency of the compound.
The GK activating effect of the compounds of the invention was measured according to the method as above, and the results are shown in Table 5 below.

[2] = test system: male beagles; assay: Antihyperglycemic effect in fasted beagles (plasma glucose AUC); assay type: in vivo; conditions: compared to control group up to 4 hours after administration, fasted overnight
Description: From the cephalic vein of male beagles fasted overnight (9.4-14.4 kg body weight), blood was collected prior to administration, followed by oral administration of the test drug suspended in a 0.5% methyl cellulose solution (0.3 and 1 mg/kg), while a 0.5% methyl cellulose solution was orally administered to the control group. The blood was collected at 0.5, 1, 2, and 4 hours after the administration of the test drug. Plasma was separated from the obtained blood to determine a plasma glucose level using Determina-GL-E (Kyowa Medics).

[3] = test system: high-fat diet loaded mice; assay: Antihyperglycemic effect in high-fat diet loaded mice; assay type: in vivo, C57BL/6J mice; conditions: oral 10 mg/kg in 0.5% methyl cellulose; 1 hour after administration; free-feeding mice
Description: Six-week-old male C57BL/6J mice were fed a high-fat diet (RESEARCH DIETS, D12492) for ≧9 weeks to produce the high-fat diet loaded mice (>160 mg/dl).
The slight tail tips of the high-fat diet loaded mice (18-21 weeks old, n=6) under the conditions of free-feeding and water intake were cut with scissors to collect their blood. The collected blood was used to determine blood glucose levels prior to the administration of a compound by a blood glucose level measuring apparatus (One Touch Ultra (Johnson. Johnson)), followed by oral administration of the compound suspended in a 0.5% methyl cellulose solution at 10 mg/kg, while a 0.5% methyl cellulose solution was orally administered to the control group. The blood glucose levels were determined using the blood glucose level measuring apparatus every 1 hour after the administration of the test drug solutions.
The values of the decreases in blood glucose (differences between the control group and the compound-treated group) at 1 hour after administration were shown in Table 7 described below.
The values of the decreases in blood glucose (differences between the control group and the compound-treated group) at 1 hour after administration of the compounds according to Example 1 and Example 7 were shown in Table 7 described below.

[4] = racemates, comparison with WO2007/007910

CN(C)C(=O)Cc1ccc(Oc2cc3nc(-c4ccccn4)[nH]c3cc2C2CCC(=O)O2)cc1 (single isomer, unassigned) [Example 7 A, N,N-dimethyl-2-(4-{[6-(5-oxotetrahydrofuran-2-yl)-2-pyridin-2-yl-1H-benzimidazol-5-yl]oxy}phenyl)acetamide]
Emax(%) ([1]; separated enantiomers, listed as 7 A): 775%
pEC50 ([1]; separated enantiomers): 5.61

COCc1ccc(Oc2cc3nc(-c4ccccn4)[nH]c3cc2C2CCC(=O)O2)cn1 (racemic) [Example 11 Racemate, 5-(5-{[6-(methoxymethyl)pyridin-3-yl]oxy}-2-pyridin-2-yl-1H-benzimidazol-6-yl)dihydrofuran-2(3H)-one]
pEC50 [1, 4]: 6.31

O=C1CCC(c2cc3[nH]c(-c4ccccn4)nc3cc2Oc2ccc(C(=O)N3CCC3)cc2)O1 (single isomer, unassigned) [Example 1 B, 5-{5-[4-(azetidin-1-ylcarbonyl)phenoxy]-2-pyridin-2-yl-1H-benzimidazol-6-yl}dihydrofuran-2(3H)-one]
Emax(%) ([1]; separated enantiomers, listed as 1 B): 588%
pEC50 ([1]; separated enantiomers): 6.62
Rate of decrease (%) in plasma glucose level AUC ([2]; oral 0.3 mg/kg): 16.2%
Rate of decrease (%) in plasma glucose level AUC ([2]; oral 1.0 mg/kg): 23.4%
Difference from control group (Δmg/dl), decrease in blood glucose [3]: −132 Δmg/dl

CN(C)C(=O)c1ccc(Oc2cc3nc(-c4ccccn4)[nH]c3cc2C2CCC(=O)O2)cn1 (single isomer, unassigned) [Example 4 B, N,N-dimethyl-5-{[6-(5-oxotetrahydrofuran-2-yl)-2-pyridin-2-yl-1H-benzimidazol-5-yl]oxy}pyridine-2-carboxamide]
Emax(%) ([1]; separated enantiomers, listed as 4 B): 668%
pEC50 ([1]; separated enantiomers): 6.55

O=C1CCC(c2cc3[nH]c(-c4ccccn4)nc3cc2Oc2ccc(C(=O)N3CCC3)nc2)O1 (single isomer, unassigned) [Example 2 B, 5-(5-{[6-(azetidin-1-ylcarbonyl)pyridin-3-yl)oxy}-2-pyridin-2-yl-1H-benzimidazol-6-yl)dihydrofuran-2(3H)-one]
Emax(%) ([1]; separated enantiomers, listed as 2 B): 704%
pEC50 ([1]; separated enantiomers): 6.51

CN(C)C(=O)c1ccc(Oc2cc3nc(-c4ccccn4)[nH]c3cc2C2CCC(=O)O2)cn1 (single isomer, unassigned) [Example 4 A, N,N-dimethyl-5-{[6-(5-oxotetrahydrofuran-2-yl)-2-pyridin-2-yl-1H-benzimidazol-5-yl]oxy}pyridine-2-carboxamide]
Emax(%) ([1]; separated enantiomers, listed as 4 A): 432%
pEC50 ([1]; separated enantiomers): 4.80

COCc1ccc(Oc2cc3nc(-c4ccccn4)[nH]c3cc2C2CCC(=O)O2)cn1 (single isomer, unassigned) [Example 11 B, 5-(5-{[6-(methoxymethyl)pyridin-3-yl]oxy}-2-pyridin-2-yl-1H-benzimidazol-6-yl)dihydrofuran-2(3H)-one]
Emax(%) ([1]; separated enantiomers, listed as 11 B): 788%
pEC50 ([1]; separated enantiomers): 6.57

O=C1CCC(c2cc3[nH]c(-c4ccccn4)nc3cc2Oc2ccc(C(=O)N3CCC3)nc2)O1 (single isomer, unassigned) [Example 2 A, 5-(5-{[6-(azetidin-1-ylcarbonyl)pyridin-3-yl)oxy}-2-pyridin-2-yl-1H-benzimidazol-6-yl)dihydrofuran-2(3H)-one]
Emax(%) ([1]; separated enantiomers, listed as 2 A): 476%
pEC50 ([1]; separated enantiomers): 4.82

CCNC(=O)c1ccc(Oc2cc3nc(-c4ccccn4)[nH]c3cc2C2CCC(=O)O2)cn1 (single isomer, unassigned) [Example 6 B, N-ethyl-5-{[6-(5-oxotetrahydrofuran-2-yl)-2-pyridin-2-yl-1H-benzimidazol-5-yl]oxy}pyridine-2-carboxamide]
Emax(%) ([1]; separated enantiomers, listed as 6 B): 781%
pEC50 ([1]; separated enantiomers): 6.62

CN(C)C(=O)Cc1ccc(Oc2cc3nc(-c4ccccn4)[nH]c3cc2C2CCC(=O)O2)cc1 (single isomer, unassigned) [Example 7 B, N,N-dimethyl-2-(4-{[6-(5-oxotetrahydrofuran-2-yl)-2-pyridin-2-yl-1H-benzimidazol-5-yl]oxy}phenyl)acetamide]
Emax(%) ([1]; separated enantiomers, listed as 7 B): 972%
pEC50 ([1]; separated enantiomers): 6.54
Rate of decrease (%) in plasma glucose level AUC ([2]; oral 0.3 mg/kg): 12.4%
Rate of decrease (%) in plasma glucose level AUC ([2]; oral 1.0 mg/kg): 15.6%
Difference from control group (Δmg/dl), decrease in blood glucose [3]: −146 Δmg/dl

O=C1CCC(c2cc3[nH]c(-c4ccccn4)nc3cc2Oc2ccc(C(=O)N3CCC3)cc2)O1 (single isomer, unassigned) [Example 1 A, 5-{5-[4-(azetidin-1-ylcarbonyl)phenoxy]-2-pyridin-2-yl-1H-benzimidazol-6-yl}dihydrofuran-2(3H)-one]
Emax(%) ([1]; separated enantiomers, listed as 1 A): 541%
pEC50 ([1]; separated enantiomers): 5.72

O=C1CCC(c2cc3[nH]c(-c4ccccn4)nc3cc2Oc2ccc(C(=O)N3CCC3)cc2)O1 (racemic) [Example 1 Racemate, 5-{5-[4-(azetidin-1-ylcarbonyl)phenoxy]-2-pyridin-2-yl-1H-benzimidazol-6-yl}dihydrofuran-2(3H)-one]
pEC50 [1, 4]: 6.28

CN(C)C(=O)Cc1ccc(Oc2cc3nc(-c4ccccn4)[nH]c3cc2C2CCC(=O)O2)cc1 (racemic) [Example 7 Racemate, N,N-dimethyl-2-(4-{[6-(5-oxotetrahydrofuran-2-yl)-2-pyridin-2-yl-1H-benzimidazol-5-yl]oxy}phenyl)acetamide]
pEC50 [1, 4]: 6.33

COCc1ccc(Oc2cc3nc(-c4ccccn4)[nH]c3cc2C2CCC(=O)O2)cn1 (single isomer, unassigned) [Example 11 A, 5-(5-{[6-(methoxymethyl)pyridin-3-yl]oxy}-2-pyridin-2-yl-1H-benzimidazol-6-yl)dihydrofuran-2(3H)-one]
Emax(%) ([1]; separated enantiomers, listed as 11 A): 412%
pEC50 ([1]; separated enantiomers): 4.78

CCNC(=O)c1ccc(Oc2cc3nc(-c4ccccn4)[nH]c3cc2C2CCC(=O)O2)cn1 (single isomer, unassigned) [Example 6 A, N-ethyl-5-{[6-(5-oxotetrahydrofuran-2-yl)-2-pyridin-2-yl-1H-benzimidazol-5-yl]oxy}pyridine-2-carboxamide]
Emax(%) ([1]; separated enantiomers, listed as 6 A): 553%
pEC50 ([1]; separated enantiomers): 5.74
